The test system of the assay is Plasmodium falciparum. The assay can be described thus: GSK_TCMDC: Inhibition of Plasmodium falciparum 3D7 in whole erythrocytes, using parasite LDH activity as an index of growth. Type of assay: functional, organism-based. Conditions: Plasmodium falciparum, 3D7.
The compound `COc1cc2c(cc1C(F)(F)F)N(C(=O)Nc1cc(Br)cc(-c3cccnc3)c1)CC2` had an XC50 of 864 nM.
In the case of `CC(C)[C@H](NC(=O)c1ccc(O)c(-c2cccc(C(F)(F)F)c2)c1)C(=O)NCCN1CCCCC1` it was 836 nM; in that of `COc1cc2nccc(Nc3ccc(Oc4ccccc4)cc3)c2cc1OC`, 684 nM.
In the case of `c1ccc(CNCc2cccc(-c3ccc(-c4nc5ccccc5[nH]4)s3)c2)cc1` it was 818 nM; in that of `Cc1cc(N2CCCN(CC3CCCCC3)CC2)nc(Nc2ccc(Br)cc2)n1`, 943 nM; in that of `Cc1noc(-c2ccc(N3CCC(C(=O)N4CCN(C(C)C)CC4)CC3)cc2)n1`, 1070 nM.
`Cc1cnc(-c2ccc(NC(=O)N3CCc4cc5nccc(N6CCN7CCC[C@H]7C6)c5cc43)c3ccccc23)o1`: the XC50 is 858 nM.
`CCOc1ccc(C(C)NC(=O)Nc2ccccc2)cc1OCC` (stereo not given) yielded an XC50 of 901 nM.
For `CC1N=C(N)N=C(N)N1OCc1cccc2ccccc12` (stereo not given), the XC50 came out at 3.2 nM.
In the case of `COc1ccc(-n2ccnc2SCC(=O)Nc2cc(Cl)ccc2OC)c(OC)c1` it was 734 nM.
Under `COc1ccc(Cc2cnc(N)nc2N)cc1OCCCOc1ccccc1` stands 911 nM; under `O=C(Nc1cc(Cl)cc(Cl)c1)Nc1ccccc1C(=O)NC1CCCCC1`, 749 nM; under `O=C(/C=C/C=C/c1ccccc1)NC1CCC(CN2CCC(c3c[nH]c4ccccc34)CC2)CC1` (stereo not given), 868 nM.
In the case of `COc1ccc2nccc([C@@H](O)CN3CCC(NCc4ccc(OC)c(NC=O)c4)CC3)c2c1` it was 753 nM; in that of `Cc1cc(=NN=Cc2ccccn2)c2cc(C(F)(F)F)ccc2[nH]1`, 621 nM.
Compound `CCN1CCN(CC(O)CNC(=O)Nc2ccc(Cl)cc2)CC1` (stereo not given) had an XC50 of 150 nM.
In the case of `CC1CN(c2cnn(Cc3ccc(NC(=O)Nc4cccc(C(F)(F)F)c4)cc3)c(=O)c2Cl)CC(C)N1` (stereo not given) it was 940 nM.
Under `CCCCNC(=N)Nc1ccc(OCCCOc2ccc(NC(=N)NCCCC)cc2)cc1` stands 164 nM.
In the case of `Cc1cccc(Cn2nc(-c3ccccc3)c(N3CCCCC3)cc2=O)c1` it was 464 nM; in that of `COc1ccc2ccc(F)c(CCN3CCC(NCc4cc5c(cn4)OCCO5)CC3)c2n1`, 840 nM.
In turn, `O=C1COc2ccccc2N1C/C=C(\CN1CCC(c2ccccc2)CC1)c1cc(Cl)cc(Cl)c1` yielded an XC50 of 215 nM.
In the case of `COc1ccc(-c2cccc(NC(=O)c3cccc(F)c3)c2)cc1CN1CCCN(C)CC1` it was 603 nM; in that of `O=C(N[C@@H](CC1CCCCC1)C(=O)NCc1cccc2ccccc12)c1ccc(O)c(-c2ccc(Cl)c(Cl)c2)c1`, 216 nM.
As for `COCCN1CCC(N(CC2(O)CCN(c3ccc(C(F)(F)F)cc3)CC2)C(=O)Cn2c(SCc3cccc(F)c3F)cc(=O)c3ccccc32)CC1`, the XC50 was found to be 807 nM.
Under `CCc1cn2c3c(cc(C(=O)N[C@@H](Cc4ccccc4)[C@H](O)CNCC(C)C)cc13)N(C)S(=O)(=O)CC2` stands 37.6 nM; under `COc1cc(CNCCCNc2nc(=O)c3sccc3[nH]2)c2[nH]cc(Cl)c2c1`, 888 nM; under `Cc1c(-c2ccccc2)ccc2[nH]cc(CC#N)c12`, 703 nM.
As to `CNCCNc1nccc(N2CCc3ncnc(Nc4ccc(OCc5cccc(F)c5)c(Cl)c4)c3C2)n1`, the XC50 came out at 197 nM.
Under `COc1ccc2nccc([C@H](O)CN3CCC(NCc4ccc5c(c4C)OCCO5)CC3)c2n1` stands 886 nM; under `CC(C)CCNC(=O)C1Cc2c([nH]c3cc(Br)ccc23)C2(CCN(CCc3ccccc3)CC2)N1` (stereo not given), 910 nM; under `COc1ccc2nccc([C@@H](O)CN3CCC(NCc4ccc5cccc(O)c5n4)CC3)c2n1`, 912 nM.
In the case of `COC(=O)[C@@H](NC(=O)[C@H](CC(C)C)Nc1ccc(C#N)c2ccccc12)c1ccc(O)cc1` it was 788 nM; in that of `O=C(Nc1ccsc1C(=O)NC1CCCCC1)c1ccc(F)cc1`, 1210 nM; in that of `Cc1cnc(NCCc2ccc(F)cc2)nc1NCCC(=O)Nc1ccccc1`, 946 nM.
In the case of `CC(CCCCOCCc1ccccc1)NCC(O)c1cc(Cl)c(N)c(Cl)c1` (stereo not given) it was 788 nM.

These data come from ChEMBL document CHEMBL1157539, “Thousands of chemical starting points for antimalarial lead identification” (Nature, 2010).
